Measurements from ChEMBL document CHEMBL5247585, “Design, synthesis, and evaluation of 4(1H)-quinolinone and urea derivatives as KRASG12C inhibitors with potent antitumor activity against KRAS-mutant non-small cell lung cancer” (Eur J Med Chem, 2022).
pIC50: −log10 of the molar value. Calls of active or inactive are those of the source. No cut-off for these calls is given here.

Legend:
NCI-H2228 = assay: Antiproliferative activity against human NCI-H2228 cells harboring wild type KRAS assessed as reduction in cell viability incubated for 72 hrs by MTT assay; assay type: functional, cell-based; conditions: NCI-H2228, 72 h
NCI-H23 = assay: Antiproliferative activity against human NCI-H23 cells harboring KRAS G12C mutant assessed as reduction in cell viability incubated for 72 hrs by MTT assay; assay type: functional, cell-based; conditions: NCI-H23, 72 h
[1] = Selectivity index, ratio of IC50 for human A549 cells harboring KRAS G12S mutant to IC50 for human NCI-H23 cells harboring KRAS G12C mutant; assay type: functional
NCI-H358 [2] = assay: Inhibition of KRAS signaling in human NCI-H358 cells harboring KRAS G12C mutant assessed as decrease in AKT phosphorylation level at 0.5 to 8 uM incubated for 6 hrs by Western blot analysis relative to control; assay type: cell-based; conditions: dose 0.5-8 µM
[3] = Cytotoxicity against human MRC5 cells assessed as reduction in cell viability incubated for 72 hrs by MTT assay; assay type: toxicity, cell-based
NCI-H441 = assay: Antiproliferative activity against human NCI-H441 cells harboring KRAS G12V mutant assessed as reduction in cell viability incubated for 72 hrs by MTT assay; assay type: functional, cell-based; conditions: NCI-H441, 72 h
[4] = Toxicity in BALB/c mouse xenografted with human NCI-H358 cells harboring KRAS G12C mutant assessed as effect on body weight at 10 to 15 mg/kg, ip administered for 21 days; assay type: organism-based; conditions: in vivo, 504 h, dose 10-15 mg/kg, time 21 day
[5] = Selectivity index, ratio of IC50 for human NCI-H2228 cells harboring wild type KRAS to IC50 for human NCI-H358 cells harboring KRAS G12C mutant; assay type: functional
NCI-H358 [6] = assay: Antitumor activity against human NCI-H358 cells harboring KRAS G12C mutant xenografted in BALB/c mouse assessed as tumor growth inhibition at 10 mg/kg, ip administered for 21 days; assay type: functional, organism-based; conditions: time 21.0 day
NCI-H358 [7] = assay: Inhibition of KRAS signaling in human NCI-H358 cells harboring KRAS G12C mutant assessed as decrease in ERK phosphorylation level at 0.5 to 8 uM incubated for 6 hrs by Western blot analysis relative to control; assay type: cell-based; conditions: dose 0.5-8 µM
NCI-H358 [8] = assay: Antiproliferative activity against human NCI-H358 cells harboring KRAS G12C mutant assessed as reduction in cell viability incubated for 72 hrs by MTT assay; assay type: functional, cell-based; conditions: NCI-H358, 72 h
[9] = tested on: GTPase KRas (Homo sapiens), P01116 [G12C]; assay: Covalent binding affinity to 6His tagged GDP bound human KRAS G12C mutant (1 to 169 residues) expressed in Escherichia coli BL21 (DE3) cells at 200 uM incubated for 24 hrs by LC-MS /MS analysis
[10] = Selectivity index, ratio of IC50 for human NCI-H2228 cells harboring wild type KRAS to IC50 for human NCI-H23 cells harboring KRAS G12C mutant; assay type: functional
[11] = tested on: GTPase KRas (Homo sapiens), P01116 [G12C]; assay: Inhibition of 6His tagged Mant-GDP loaded human KRAS G12C mutant (1 to 169 residues) expressed in Escherichia coli BL21 (DE3) cells assessed as inhibition of […] nucleotide exchange at 10 uM preincubated with compound for 1 hrs followed by addition of GTP and EDTA and measured every 90 sec for 2 hrs by fluorescence based assay; conditions: time 3.0 hrs
A549 = assay: Antiproliferative activity against human A549 cells harboring KRAS G12S mutant assessed as reduction in cell viability incubated for 72 hrs by MTT assay; assay type: functional, cell-based; conditions: A549, 72 h
SK-LU-1 = assay: Antiproliferative activity against human SK-LU-1 cells harboring KRAS G12D mutant assessed as reduction in cell viability incubated for 72 hrs by MTT assay; assay type: functional, cell-based; conditions: SK-LU-1, 72 h
[12] = tested on: GTPase KRas (Homo sapiens), P01116 [G12C]; assay: Inhibition of 6His tagged Mant-GDP loaded human KRAS G12C mutant (1 to 169 residues) expressed in Escherichia coli BL21 (DE3) cells assessed as inhibition of SOS1-mediated nucleotide exchange at 10 uM preincubated with compound for 1 hrs followed by addition of GTP and SOS1 protein and measured every 90 sec for 2 hrs by fluorescence based assay; conditions: time 3.0 hrs
[13] = Selectivity index, ratio of IC50 for human A549 cells harboring KRAS G12S mutant to IC50 for human NCI-H358 cells harboring KRAS G12C mutant; assay type: functional
[14] = target: GTPase KRas (Homo sapiens) (UniProt P01116); assay: Inhibition of KRAS signaling in human NCI-H2228 cells harboring wildtype KRAS at 0.5 to 8 uM incubated for 6 hrs by Western blot analysis; assay type: cell-based; conditions: dose 0.5-8 µM
[15] = tested on: GTPase KRas (Homo sapiens), P01116 [G12C]; assay: In vivo inhibition of KRAS signaling in BALB/C mouse xenografted with human NCI-H358 cells harboring KRAS G12C mutant assessed as decrease in ERK phosphorylation in tumor at 10 to 15 mg/kg, ip administered for 21 days by IHC staining based analysis; assay type: functional, organism-based; conditions: dose 10-15 mg/kg, time 21.0 day
[16] = Selectivity index, ratio of IC50 for human MRC5 cells to IC50 for human NCI-H358 cells harboring KRAS G12C mutant
NCI-H358 [17] = assay: Antitumor activity against human NCI-H358 cells harboring KRAS G12C mutant xenografted in BALB/c mouse assessed as increase in cleaved caspase-3 level at 10 to 15 mg/kg, ip administered for 21 days by IHC staining analysis; assay type: functional, organism-based; conditions: dose 10-15 mg/kg, time 21.0 day
[18] = target: GTPase KRas (Homo sapiens) (UniProt P01116); assay: Covalent binding affinity to 6his tagged GDP bound human wildtype KRAS expressed in Escherichia coli BL21 (DE3) cells at 200 uM incubated for 24 hrs by LC-MS/MS analysis
NCI-H358 [19] = assay: Induction of apoptosis in human NCI-H358 cells assessed as fold change in cleaved caspase-3 level at 0.5 to 8 uM incubated for 6 hrs by Western blot analysis; assay type: functional; conditions: dose 0.5-8 µM
NCI-H358 [20] = assay: Antitumor activity against human NCI-H358 cells harboring KRAS G12C mutant xenografted in BALB/c mouse assessed as tumor growth inhibition at 15 mg/kg, ip administered for 21 days; assay type: functional; conditions: NCI-H358, 504 h, time 21 day, read-out: TGI
NCI-H358 [21] = assay: Antitumor activity against human NCI-H358 cells harboring KRAS G12C mutant xenografted in BALB/c mouse assessed as reduction in tumor growth at 10 to 15 mg/kg, ip administered for 21 days by Ki67 staining based analysis; assay type: functional, organism-based; conditions: dose 10-15 mg/kg, time 21.0 day

## O=C(CCl)N1CCN(C(=O)Nc2ccc(Cl)c(-c3ccccc3F)c2)CC1
NCI-H2228
  pIC50: 4.94
NCI-H23
  pIC50: 5.89
[1]
  Ratio IC50: 7
NCI-H358 [2]
  inhibition: 30%
[3]
  IC50 at 72 h: 6.1 µM
NCI-H441
  pIC50: 5.36
[4]
  Activity: Non-Toxic
[5]
  Ratio IC50: 7
NCI-H358 [6]
  TGI: Active
NCI-H358 [7]
  inhibition: 40%
NCI-H358 [8]
  pIC50: 6.30
[9]
  Activity: Active
[10]
  Ratio IC50: 7
[11]
  inhibition: inactive
A549
  pIC50: 5.03
SK-LU-1
  pIC50: 5.34
[12]
  inhibition: Active
[13]
  Ratio IC50: 7
[14]
  inhibition: inactive
[15]
  inhibition: Active
[16]
  Ratio IC50: 12
NCI-H358 [17]
  Activity: Active
[18]
  Activity: inactive
NCI-H358 [19]
  fold change (FC): 2
NCI-H358 [20]
  inhibition in vivo at 15 mg/kg: 50%
NCI-H358 [21]
  Activity: Active
